Source: EP3856897B1 (Anadolu Universitesi, priority 2018, dated 2020)
Where two headings read alike, the source gives them in different places.

Tests used:
[1] = biological target: T1, mu class glutathione S-transferase from Manila clam Ruditapes philippinarum (RpGSTµ) (Ruditapes philippinarum, UniProt G9HSP7); conditions: from Bathige et al., 2014, cited from earlier work
T1 sequence (G9HSP7 1-217): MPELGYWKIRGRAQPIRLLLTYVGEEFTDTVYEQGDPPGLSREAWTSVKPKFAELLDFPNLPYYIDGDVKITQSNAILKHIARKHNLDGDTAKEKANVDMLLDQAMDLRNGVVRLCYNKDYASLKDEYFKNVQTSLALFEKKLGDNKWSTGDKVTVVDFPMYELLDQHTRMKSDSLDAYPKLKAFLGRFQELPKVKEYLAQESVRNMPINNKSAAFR

[2] = biological target: T2, recombinant Tetrahymena thermophila Glutathione S Transferase Mu34 (TtGSTm34-8xHis) enzyme, SEQ ID NO: 1 (Tetrahymena thermophila, UniProt I7M2D2); assay: Enzyme kinetics of recombinant TtGSTm34-8xHis for substrates GSH and CDNB (spectrophotometric at 340 nm, Lineweaver-Burk); format: biochemical; conditions: 200 mM potassium phosphate buffer, 25°C; for Km: 7 substrate concentrations 0.1125-3.6 mM, the other substrate (GSH or CDNB) held at 0.9 mM, Lineweaver-Burk graph; for Kcat: kcat = Vmax/Et, the other substrate held at 0.9 mM
T2 sequence (I7M2D2 39-257): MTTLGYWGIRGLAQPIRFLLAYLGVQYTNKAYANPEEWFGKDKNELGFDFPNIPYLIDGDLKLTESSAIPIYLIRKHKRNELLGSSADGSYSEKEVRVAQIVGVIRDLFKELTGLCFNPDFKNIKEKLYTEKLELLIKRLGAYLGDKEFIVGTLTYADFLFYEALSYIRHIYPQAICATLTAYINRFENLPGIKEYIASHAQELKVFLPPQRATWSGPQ
Protocol: Determination of GST enzyme activities of affinity purified proteins was performed spectrophotometrically in the presence of 1-chloro-2,4-dinitrobenzene (CDNB) as substrate. […] The enzyme activities were measured with BioTek The Synergy ™ HT Elisa device using Gen5 software. The O.D values for enzyme activity were determined at 340 nm for 30 minutes with 2 minutes intervals, using BioTek The Synergy™ HT Elisa Reader kinetics program.
Unit value of activity is defined as the amount of enzyme that catalyzes 1 µmol substrate at 25°C (CDNB extinction coefficient340 nm = 9.6 mM^-1 cm^-1). The enzyme activities were first calculated in terms of U/ml. Then these values were divided by protein concentrations that were determined by Bradford method (Pierce™ Coomassie Plus Bradford Assay Reagent Cat no: 23238). This way specific activities were calculated in terms of U/mg.
Then activity measurements were carried out in 200 mM potassium phosphate buffer at 25°C for 7 different CDNB concentrations: 0,1125 mM, 0,225 mM, 0,45 mM, 0,9 mM, 1,8 mM, 2,7 mM ve 3,6 mM. A 1/V^- 1 [CDNB] Lineweaver-Burk graph was drawn according to the results obtained (Figure 8). With this graphical aid, Km and Vmax values for CDNB were determined.
These calculations were followed by quantitative protein assay (Bradford) and total enzyme amount (Et) was determined. Kcat value, which reflects the enzyme turnover number was calculated using the formula given below: kcat = Vmax /Et [formula]
One way of comparing the catalytic effects of various enzymes or the conversion of different substrates to the product with the same enzyme is to find the specificity constant (V0) for the reactions. The specificity constant is calculated by the following formula: V0 = kcat /km [formula]

| Structure (SMILES) | Km [1] [µM] | Km [2] [µM] | Kcat [2] [s⁻¹] | Km ([1]; read-out: Km) [µM] | Km ([2]; read-out: Km) [µM] |
| --- | --- | --- | --- | --- | --- |
| O=[N+]([O-])c1ccc(Cl)c([N+](=O)[O-])c1 [CDNB, 1-Chloro-2,4-dinitrobenzene] | 560 | 470 | 195.4 | – | – |
| N[C@@H](CCC(=O)N[C@@H](CS)C(=O)NCC(=O)O)C(=O)O [GSH, glutathione] | – | – | 186.9 | 1030 | 540 |
